Results reported in US7563774B2, “Combination of FBPase inhibitors and antidiabetic agents useful for the treatment of diabetes” (Metabasis Therapeutics, Inc., priority 2000, dated 2009).

Key:
C57BL/KsJ db/db mice = assay: Acute combination treatment of a biguanide and an FBPase inhibitor in db/db mice (Example DD); format: in vivo, mouse
Method: Male C57BL/KsJ db/db mice were purchased at 5 weeks of age from Clea Japan, Inc. (Tokyo, Japan). The mice were maintained under standard vivarium conditions (24-26° C., 12-hour light cycle, 12-hour dark cycle) and received standard chow and water ad libitum. […] The treatment groups were control, compound J , metformin, and the combination of compound J and metformin. […] Food was removed after treatment. Blood glucose levels in tail vein samples were measured by means of a Glucoloader-F, an automatic glucose analyzer, (A&T Co., Ltd., Tokyo, Japan).

Goto-Kakizaki rats = assay: Acute combination treatment of an alpha glucosidase inhibitor and an FBPase inhibitor in Goto-Kakizaki rats (Example EE); format: in vivo, rat
Method: Goto-Kakizaki rats, an animal model of lean NIDDM, were purchased at 5 weeks of age from Charles River Japan, Inc. (Tokyo, Japan). The rats were maintained under standard vivarium conditions (24-26° C., 12-hour light cycle, 12-hour dark cycle) and received standard chow and water ad libitum. At 18 weeks of age, animals were divided into 4 groups (n=5/group). The treatment groups were control, Compound J, acarbose (Bayer, Japan), and the combination of Compound J and acarbose. All animals were given 1 g/kg of corn starch by oral gavage. […] Acarbose was administered orally at a dose of 1 mg/kg simultaneously with starch. Blood glucose levels in tail vein samples were measured by means of a Glucoloader-F, an automatic glucose analyzer, (A&T Co., Ltd., Tokyo, Japan).

[1] = system: Sprague-Dawley or Wistar rats; conditions: fasted rat, cited from earlier work

CN(C)C(=N)N=C(N)N [Metformin, metformin, reference compound]
Plasma Glucose, % of pretreatment value (C57BL/KsJ db/db mice; after 2 hour): (67.7 +/− 1.9) %
Plasma Glucose (C57BL/KsJ db/db mice; after 2 hour, Compound J and/or metformin 150 mg/kg p.o.): 347.0 ± 21.2 mg/dL
Plasma Glucose (C57BL/KsJ db/db mice; after 4 hour): 346.5 ± 34.6 mg/dL
Plasma Glucose, % of pretreatment value (C57BL/KsJ db/db mice; after 4 hour): (66.4 +/− 3.1) %
Plasma Glucose (C57BL/KsJ db/db mice; after 6 hour): 348.3 ± 30.7 mg/dL
Plasma Glucose, % of pretreatment value (C57BL/KsJ db/db mice; after 6 hour): (67.7 +/− 4.1) %
Plasma Glucose (C57BL/KsJ db/db mice; after 8 hour): 407.8 ± 40.0 mg/dL
Plasma Glucose, % of pretreatment value (C57BL/KsJ db/db mice; after 8 hour): (79.1 +/− 5.6) %
Plasma Glucose (C57BL/KsJ db/db mice; before (0 hour)): 515.7 ± 37.0 mg/dL
Plasma Glucose, % of pretreatment value (C57BL/KsJ db/db mice; before (0 hour)): (100.0 +/− 0.0) %
blood glucose lowering (C57BL/KsJ db/db mice; db/db mice, acute): lowered blood glucose significantly relative to controls

C[C@H]1O[C@H](O[C@H]2[C@H](O)[C@@H](O)[C@@H](O[C@H]3[C@H](O)[C@@H](O)C(O)O[C@@H]3CO)O[C@@H]2CO)[C@H](O)[C@@H](O)[C@@H]1N[C@H]1C=C(CO)[C@@H](O)[C@H](O)[C@H]1O (stereo partly shown) [Acarbose, acarbose, reference compound]
Plasma Glucose, relative value (% of pre-treatment value) (Goto-Kakizaki rats; 0 min): (129.4 +/− 2.8) %
Plasma Glucose (Goto-Kakizaki rats; 0 min, Compound J 10 mg/kg p.o. at −60 min, acarbose 1 mg/kg p.o. with starch): 226.4 ± 5.3 mg/dL
Plasma Glucose (Goto-Kakizaki rats; 30 min after starch): 243.8 ± 8.5 mg/dL
Plasma Glucose, relative value (% of pre-treatment value) (Goto-Kakizaki rats; 30 min after starch): (139.5 +/− 6.0) %
Plasma Glucose (Goto-Kakizaki rats; 60 min after starch): 247.2 ± 8.2 mg/dL
Plasma Glucose, relative value (% of pre-treatment value) (Goto-Kakizaki rats; 60 min after starch): (141.3 +/− 4.9) %
Plasma Glucose (Goto-Kakizaki rats; 120 min after starch): 209.4 ± 5.9 mg/dL
Plasma Glucose, relative value (% of pre-treatment value) (Goto-Kakizaki rats; 120 min after starch): (119.9 +/− 4.9) %
Plasma Glucose (Goto-Kakizaki rats; 240 min after starch): 164.2 ± 10.7 mg/dL
Plasma Glucose, relative value (% of pre-treatment value) (Goto-Kakizaki rats; 240 min after starch): (93.5 +/− 4.7) %
Plasma Glucose, relative value (% of pre-treatment value) (Goto-Kakizaki rats; −60 min): (100.0 +/− 0.0) %
Plasma Glucose (Goto-Kakizaki rats; −60 min relative to starch 1 g/kg): 175.4 ± 5.9 mg/dL

CCOc1cc(CC(=O)N[C@@H](CC(C)C)c2ccccc2N2CCCCC2)ccc1C(=O)O [Repaglinide]
ED50 ([1]; 2 h): 0.01 (2 h) mg/kg
Gluc low,% ([1]; Dose 0.01): −21%
